Literature values in patent US20090269400A1, “Nanoparticulate and Controlled Release Compositions Comprising a Cephalosporin” (ELAN PHARMA INTERNATIONAL LIMITED, priority 2005, published 2009).
Where two headings read alike, the source gives them in different places.

Details: stated in words in background/summary, no method given

solubility in water | solubility in water (listed as cefpodoxime proxetil) | Structure (SMILES)
practically insoluble in water | only slightly soluble in water | COCC1=C(C(=O)OC(C)OC(=O)OC(C)C)N2C(=O)[C@@H](NC(=O)/C(=N\OC)c3csc(N)n3)[C@H]2SC1 (mixture of isomers) [Cefpodoxime proxetil, (RS)-1(isopropoxycarbonyloxy)ethyl (+)-(6R,7R)-7-[2-(2-amino-4-thiazolyl)-2-{(Z)methoxyimino}acetamido]-3-methoxymethyl-8-oxo-5-thia-1-azabicyclo [4.2.0]oct-2-ene-2-carboxylate]
practically insoluble in water |  | COCC1=C(C(=O)O)N2C(=O)[C@@H](NC(=O)/C(=N\OC)c3csc(N)n3)[C@H]2SC1 [cefpodoxime]
